Experimental data published in ChEMBL document CHEMBL1201862, “PubChem BioAssay data set” (2004).
Activity calls are given as the source filed them.

How the values were obtained:
[1] = Counterscreen for inhibitors of Trypanosoma brucei methionyl tRNA synthetase (MetRS): Luminescence-based cell-based high throughput dose response assay to identify compounds that are cytotoxic to Jurkat human T lymphocyte cells.; type: functional
[2] = target: T1, Methionyl-tRNA synthetase, putative (Trypanosoma brucei brucei, UniProt Q38C91); type: functional, Trypanosoma brucei brucei strain 927/4 GUTat10.1
T1 sequence (Q38C91 whole entry): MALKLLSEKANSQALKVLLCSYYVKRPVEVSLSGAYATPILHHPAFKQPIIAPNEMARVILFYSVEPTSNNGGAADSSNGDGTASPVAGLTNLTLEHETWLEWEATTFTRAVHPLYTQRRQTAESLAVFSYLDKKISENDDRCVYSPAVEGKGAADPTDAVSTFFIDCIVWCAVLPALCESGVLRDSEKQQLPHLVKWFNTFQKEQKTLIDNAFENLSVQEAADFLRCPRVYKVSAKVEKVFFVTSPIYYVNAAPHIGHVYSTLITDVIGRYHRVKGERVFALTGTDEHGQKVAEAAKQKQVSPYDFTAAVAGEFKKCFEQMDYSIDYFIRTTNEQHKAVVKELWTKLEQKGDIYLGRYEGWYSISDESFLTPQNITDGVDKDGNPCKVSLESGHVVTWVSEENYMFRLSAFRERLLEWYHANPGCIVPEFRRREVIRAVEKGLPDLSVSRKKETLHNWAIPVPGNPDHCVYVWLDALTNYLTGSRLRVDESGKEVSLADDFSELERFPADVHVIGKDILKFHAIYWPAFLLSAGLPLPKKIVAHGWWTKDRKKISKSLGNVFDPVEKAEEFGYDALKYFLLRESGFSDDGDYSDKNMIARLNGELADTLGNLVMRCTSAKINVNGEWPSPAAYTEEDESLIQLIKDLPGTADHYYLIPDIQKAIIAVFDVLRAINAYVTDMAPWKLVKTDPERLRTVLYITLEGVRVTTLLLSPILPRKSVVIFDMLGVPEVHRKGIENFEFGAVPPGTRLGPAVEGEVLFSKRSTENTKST

[3] = target: T1, Methionyl-tRNA synthetase, putative; type: functional, Trypanosoma brucei brucei strain 927/4 GUTat10.1; remark: listed apart in the source
[4] = off-target signal loss in HeLa-CEM21 co-culture – HeLa F-luc CTL cells, cherry-picked, counter-screen for HIV-1 Env fusion inhibitor project, dose response (AID 652040); type: functional, cell-based;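 note: potency for signal decrease marking cytotoxic or nonspecific inhibition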
HEK293 = assay: inhibitors of LMP1-driven NF-kB reporter, dose response, cell-based, HEK293, luciferase, cherry-pick (AID 588343); type: functional; conditions: Homo sapiens
[5] = ZM109 Env clade C HIV-1 fusion inhibitors, dose response, HeLa effector, CEM target cells, luciferase, cherry-pick (AID 652058); type: functional, cell-based
cells [6] = type: functional, cell-based
[7] = inhibitors of HIV Env-driven cell fusion, dose response, cherry-pick (AID 652057); type: functional, cell-based
cells [8] = type: functional, cell-based; remark: listed apart in the source
[9] = inhibitors of clade B AD8 Env fusion, dose response, cell-based, cherry-pick (AID 652062); type: functional;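 note: luciferase signal from cell-cell fusion driven by HIV-1 clade B AD8 Env; potency is for inhibitors of fusion seen as a drop in luminescence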
[10] = target: Fructose-bisphosphate aldolase (Mycobacterium tuberculosis, UniProt P9WQA3); assay: Fluorescence-based biochemical high throughput dose response assay for inhibitors of the fructose-bisphosphate aldolase (FBA) of M. tuberculosis.; type: functional
[11] = HEK293 cell viability, dose response, counter-screen for EBV LMP1 inhibitor project, dry powder, set 2 (AID 624374); type: functional
[12] = target: Long-chain-fatty-acid--AMP ligase FadD28 (Mycobacterium tuberculosis, UniProt P9WQ59); assay: Fluorescence polarization aasay to screen for inhibitors that compete for the binding of FadD28 to a bisubstrate Measured in Biochemical System Using Plate Reader - 2147-01_Inhibitor_Dose_CherryPick_Activity.; type: functional, Mycobacterium tuberculosis H37Rv
Cytochrome P450 3A4 = Cytochrome P450 3A4 (Homo sapiens, UniProt P08684);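 note: CYP3A4 tested as one member of a cytochrome P450 panel screen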
[13] = target: Heat shock protein HSP 90-alpha (Homo sapiens, UniProt P07900); type: functional, organism-based
[14] = target: Voltage-gated inwardly rectifying potassium channel KCNH2 (Homo sapiens, UniProt Q12809); conditions: Potency;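 note: confirmatory quantitative high-throughput screen measuring inhibition of hERG channel activity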
Beta-lactamase [15] = target: T2, Beta-lactamase (Pseudomonas aeruginosa, UniProt Q79MP6); assay: […] counterscreen for selective VIM-2 inhibitors: dose response biochemical high throughput screening assay to identify inhibitors of IMP-1 metallo-beta-lactamase.
Cysteine protease ATG4B = target: T3, Cysteine protease ATG4B (Homo sapiens, UniProt Q9Y4P1); type: functional;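 note: Fluorescence-based dose-response confirmation assay measuring inhibition of ATG4B activity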
T3 sequence (Q9Y4P1 whole entry): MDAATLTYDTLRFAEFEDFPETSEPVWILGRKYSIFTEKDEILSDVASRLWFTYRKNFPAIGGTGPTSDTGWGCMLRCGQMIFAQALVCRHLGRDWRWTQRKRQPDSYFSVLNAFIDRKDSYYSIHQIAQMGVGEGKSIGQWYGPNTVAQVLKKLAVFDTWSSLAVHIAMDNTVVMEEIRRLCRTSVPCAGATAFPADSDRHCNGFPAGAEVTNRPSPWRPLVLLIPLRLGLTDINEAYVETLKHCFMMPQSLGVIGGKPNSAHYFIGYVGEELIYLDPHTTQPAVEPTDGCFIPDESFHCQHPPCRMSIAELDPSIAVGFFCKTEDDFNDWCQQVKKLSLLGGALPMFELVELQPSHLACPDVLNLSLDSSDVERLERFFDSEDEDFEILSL

Beta-lactamase [16] = target: Beta-lactamase (Salmonella choleraesuis (strain SC-B67), UniProt Q5J463); assay: Epi-absorbance-based counterscreen for selective VIM-2 inhibitors: dose response biochemical high throughput screening assay to identify inhibitors of TEM-1 serine-beta-lactamase.
Phospholipase A2 = Phospholipase A2 (Homo sapiens, UniProt P04054); type: functional;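 note: confirmatory dose-response counterscreen on phospholipase A2, testing hits that came from an ultra-high-throughput screen for ATG4B inhibitors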
Beta-lactamase [17] = target: T2, Beta-lactamase; assay: IMP-1 metallo-beta-lactamase inhibitors, dose response, selectivity assay for VIM-2 inhibitor project, biochemical, epi-absorbance (AID 1920)
[18] = target: T4, Short transient receptor potential channel 4 (Mus musculus, UniProt Q9QUQ5); assay: mouse TRPC4 channel inhibitors, dose response, cell-based, HEK293 TRPC4/mu-opioid, Fluo-4 calcium (AID 434942); type: functional;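 note: potency of inhibitors blocking the TRPC4 calcium response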
T4 sequence (Q9QUQ5 whole entry): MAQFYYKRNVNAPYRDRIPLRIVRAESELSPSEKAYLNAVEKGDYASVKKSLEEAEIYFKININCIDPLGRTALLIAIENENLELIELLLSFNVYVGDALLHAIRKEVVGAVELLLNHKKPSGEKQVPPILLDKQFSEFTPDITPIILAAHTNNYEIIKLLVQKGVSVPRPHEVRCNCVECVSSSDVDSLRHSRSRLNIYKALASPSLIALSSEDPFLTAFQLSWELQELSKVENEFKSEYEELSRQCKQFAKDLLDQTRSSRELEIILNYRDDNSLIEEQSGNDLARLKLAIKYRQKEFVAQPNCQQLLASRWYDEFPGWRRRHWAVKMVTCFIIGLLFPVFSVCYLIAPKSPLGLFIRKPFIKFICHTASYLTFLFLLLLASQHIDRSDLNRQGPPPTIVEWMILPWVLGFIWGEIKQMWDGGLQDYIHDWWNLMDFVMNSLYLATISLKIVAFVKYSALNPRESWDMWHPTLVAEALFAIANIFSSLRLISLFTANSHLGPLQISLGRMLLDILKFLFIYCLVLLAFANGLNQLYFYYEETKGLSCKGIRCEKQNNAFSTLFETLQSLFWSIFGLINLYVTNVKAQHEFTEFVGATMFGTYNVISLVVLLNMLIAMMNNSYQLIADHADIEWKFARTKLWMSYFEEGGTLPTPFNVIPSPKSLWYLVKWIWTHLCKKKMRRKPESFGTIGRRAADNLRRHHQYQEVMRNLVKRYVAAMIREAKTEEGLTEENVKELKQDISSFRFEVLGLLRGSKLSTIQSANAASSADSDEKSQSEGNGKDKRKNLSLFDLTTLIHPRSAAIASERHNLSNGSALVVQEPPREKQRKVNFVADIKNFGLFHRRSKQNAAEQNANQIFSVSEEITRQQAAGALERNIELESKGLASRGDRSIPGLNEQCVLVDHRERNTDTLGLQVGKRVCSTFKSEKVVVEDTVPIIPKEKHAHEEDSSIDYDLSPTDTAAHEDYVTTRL

[19] = target: T5, Corticotropin-releasing factor receptor 2/Corticotropin-releasing factor-binding protein (Homo sapiens, UniProt P24387+Q13324); assay: activators of CRF receptor 2 with binding protein – uHTS hits, confirmation (AID 602473); type: functional; conditions: read-out: EC50_Mean
T5 sequence (Q13324 whole entry): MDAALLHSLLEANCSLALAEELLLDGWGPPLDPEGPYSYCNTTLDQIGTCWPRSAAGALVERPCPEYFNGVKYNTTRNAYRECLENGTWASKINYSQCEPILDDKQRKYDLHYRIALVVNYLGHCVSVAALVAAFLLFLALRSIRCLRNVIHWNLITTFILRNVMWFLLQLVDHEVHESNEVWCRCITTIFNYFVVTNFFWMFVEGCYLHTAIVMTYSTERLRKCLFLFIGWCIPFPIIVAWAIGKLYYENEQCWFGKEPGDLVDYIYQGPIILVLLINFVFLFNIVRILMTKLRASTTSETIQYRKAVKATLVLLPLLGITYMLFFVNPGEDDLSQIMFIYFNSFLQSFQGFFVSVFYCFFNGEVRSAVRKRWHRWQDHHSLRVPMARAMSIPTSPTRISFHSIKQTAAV
T5 sequence (P24387 whole entry): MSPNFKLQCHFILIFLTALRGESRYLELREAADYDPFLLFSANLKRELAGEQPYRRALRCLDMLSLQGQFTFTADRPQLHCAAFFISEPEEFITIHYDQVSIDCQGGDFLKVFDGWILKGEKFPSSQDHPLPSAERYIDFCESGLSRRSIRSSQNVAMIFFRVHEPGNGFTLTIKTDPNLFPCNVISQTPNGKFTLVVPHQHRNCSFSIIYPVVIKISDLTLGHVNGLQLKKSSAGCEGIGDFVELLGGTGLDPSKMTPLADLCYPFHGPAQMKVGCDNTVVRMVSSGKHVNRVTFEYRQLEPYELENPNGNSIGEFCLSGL

[20] = target: T6, Sentrin-specific protease 1 (Homo sapiens, UniProt Q9P0U3); assay: potency of human SENP1 inhibitors, dose response, biochemical, kinetic FRET (AID 651697); type: functional; conditions: read-out: IC50_Mean
T6 sequence (Q9P0U3 whole entry): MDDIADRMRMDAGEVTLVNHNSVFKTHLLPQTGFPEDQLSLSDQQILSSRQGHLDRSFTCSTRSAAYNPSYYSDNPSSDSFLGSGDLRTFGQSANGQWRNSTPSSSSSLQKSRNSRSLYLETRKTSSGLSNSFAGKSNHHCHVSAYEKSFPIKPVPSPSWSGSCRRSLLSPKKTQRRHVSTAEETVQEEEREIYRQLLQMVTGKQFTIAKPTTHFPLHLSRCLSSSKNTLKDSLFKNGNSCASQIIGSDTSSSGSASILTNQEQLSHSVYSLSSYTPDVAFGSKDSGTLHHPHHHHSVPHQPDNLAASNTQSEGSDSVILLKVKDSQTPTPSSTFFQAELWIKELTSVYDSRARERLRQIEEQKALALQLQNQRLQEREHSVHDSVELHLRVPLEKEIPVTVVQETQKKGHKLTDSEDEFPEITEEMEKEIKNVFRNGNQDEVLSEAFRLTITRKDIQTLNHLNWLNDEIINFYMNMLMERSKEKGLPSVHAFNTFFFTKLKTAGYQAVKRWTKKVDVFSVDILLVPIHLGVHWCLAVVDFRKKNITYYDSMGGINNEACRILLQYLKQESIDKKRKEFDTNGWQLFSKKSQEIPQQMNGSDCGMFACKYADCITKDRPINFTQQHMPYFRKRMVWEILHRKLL

[21] = target: T6, Sentrin-specific protease 1; assay: Dose response confirmation of small molecule inhibitors of the catalytic domain of the SUMO protease, SENP1 in a FRET assay.; type: functional; conditions: read-out: IC50_Mean
Vero = assay: Vero cell toxicity, dose response, cytotoxicity control, plate reader, cherry-pick samples (AID 687020); type: functional, cell-based; conditions: Chlorocebus sabaeus
[22] = P. falciparum late gametocyte killing, dose response, luminescence (AID 1117278); type: functional, cell-based;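 note: gametocytes exposed to compound for 24 hours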
[23] = Jurkat T cell cytotoxicity, dose response, cytotoxicity control for P. falciparum gametocyte viability project, luminescence (AID 1117277); type: functional, cell-based;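 note: potency reflects loss of cellular ATP meaning fewer viable cells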

T2 sequence (Q79MP6 whole entry): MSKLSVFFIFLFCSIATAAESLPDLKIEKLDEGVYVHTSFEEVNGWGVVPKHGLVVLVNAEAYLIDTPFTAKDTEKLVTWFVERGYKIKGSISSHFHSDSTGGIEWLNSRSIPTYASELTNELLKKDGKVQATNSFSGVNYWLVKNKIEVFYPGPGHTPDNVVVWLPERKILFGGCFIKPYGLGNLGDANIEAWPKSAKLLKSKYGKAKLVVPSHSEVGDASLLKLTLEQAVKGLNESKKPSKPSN
Fructose-bisphosphate aldolase, sequence (P9WQA3 whole entry): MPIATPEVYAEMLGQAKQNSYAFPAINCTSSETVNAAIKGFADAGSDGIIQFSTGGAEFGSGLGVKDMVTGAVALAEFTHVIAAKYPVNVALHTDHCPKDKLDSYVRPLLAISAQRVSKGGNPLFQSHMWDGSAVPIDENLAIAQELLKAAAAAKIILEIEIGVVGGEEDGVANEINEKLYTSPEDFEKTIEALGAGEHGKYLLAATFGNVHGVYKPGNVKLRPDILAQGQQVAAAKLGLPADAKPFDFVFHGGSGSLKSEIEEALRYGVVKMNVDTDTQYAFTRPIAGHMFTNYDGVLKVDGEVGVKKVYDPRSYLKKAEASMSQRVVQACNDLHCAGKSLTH
Beta-lactamase (Salmonella choleraesuis (strain SC-B67), UniProt Q5J463), sequence (Q5J463 whole entry): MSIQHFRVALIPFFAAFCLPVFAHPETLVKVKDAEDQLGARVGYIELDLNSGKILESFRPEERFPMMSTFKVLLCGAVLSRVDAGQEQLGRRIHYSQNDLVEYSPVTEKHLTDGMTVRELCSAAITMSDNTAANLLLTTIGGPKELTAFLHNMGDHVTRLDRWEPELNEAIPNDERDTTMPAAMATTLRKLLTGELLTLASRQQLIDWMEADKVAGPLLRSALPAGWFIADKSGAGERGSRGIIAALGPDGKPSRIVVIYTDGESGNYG
Long-chain-fatty-acid--AMP ligase FadD28, sequence (P9WQ59 whole entry): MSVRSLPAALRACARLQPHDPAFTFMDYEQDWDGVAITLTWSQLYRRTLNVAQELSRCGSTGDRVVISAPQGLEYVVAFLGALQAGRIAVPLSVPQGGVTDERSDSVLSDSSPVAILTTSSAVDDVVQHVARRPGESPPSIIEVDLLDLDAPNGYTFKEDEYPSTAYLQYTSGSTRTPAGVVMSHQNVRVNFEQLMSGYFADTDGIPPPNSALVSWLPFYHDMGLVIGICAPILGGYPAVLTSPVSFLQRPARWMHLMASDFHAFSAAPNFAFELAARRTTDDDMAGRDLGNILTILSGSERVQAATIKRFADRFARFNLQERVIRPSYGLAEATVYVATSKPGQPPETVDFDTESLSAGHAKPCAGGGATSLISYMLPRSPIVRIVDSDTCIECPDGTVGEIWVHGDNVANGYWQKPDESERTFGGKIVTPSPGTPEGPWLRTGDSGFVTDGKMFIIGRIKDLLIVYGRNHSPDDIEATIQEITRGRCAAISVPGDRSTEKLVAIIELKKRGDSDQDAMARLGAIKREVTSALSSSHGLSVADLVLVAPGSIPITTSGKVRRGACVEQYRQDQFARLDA
Cytochrome P450 3A4, sequence (P08684 whole entry): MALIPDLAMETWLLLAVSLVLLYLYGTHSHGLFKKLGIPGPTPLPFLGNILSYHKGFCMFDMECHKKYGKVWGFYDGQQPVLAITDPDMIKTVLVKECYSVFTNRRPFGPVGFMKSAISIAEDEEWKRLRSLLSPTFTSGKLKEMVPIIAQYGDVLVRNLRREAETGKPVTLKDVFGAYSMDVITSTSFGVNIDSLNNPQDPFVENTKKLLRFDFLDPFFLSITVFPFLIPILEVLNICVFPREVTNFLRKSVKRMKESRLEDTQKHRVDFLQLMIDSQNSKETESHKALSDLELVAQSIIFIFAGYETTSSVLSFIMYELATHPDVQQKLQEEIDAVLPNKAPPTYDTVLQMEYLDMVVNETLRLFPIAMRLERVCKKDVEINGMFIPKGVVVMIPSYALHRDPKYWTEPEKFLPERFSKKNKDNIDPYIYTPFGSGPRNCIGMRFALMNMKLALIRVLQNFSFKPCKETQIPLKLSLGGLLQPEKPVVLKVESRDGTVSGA
Voltage-gated inwardly rectifying potassium channel KCNH2, sequence (Q12809 whole entry): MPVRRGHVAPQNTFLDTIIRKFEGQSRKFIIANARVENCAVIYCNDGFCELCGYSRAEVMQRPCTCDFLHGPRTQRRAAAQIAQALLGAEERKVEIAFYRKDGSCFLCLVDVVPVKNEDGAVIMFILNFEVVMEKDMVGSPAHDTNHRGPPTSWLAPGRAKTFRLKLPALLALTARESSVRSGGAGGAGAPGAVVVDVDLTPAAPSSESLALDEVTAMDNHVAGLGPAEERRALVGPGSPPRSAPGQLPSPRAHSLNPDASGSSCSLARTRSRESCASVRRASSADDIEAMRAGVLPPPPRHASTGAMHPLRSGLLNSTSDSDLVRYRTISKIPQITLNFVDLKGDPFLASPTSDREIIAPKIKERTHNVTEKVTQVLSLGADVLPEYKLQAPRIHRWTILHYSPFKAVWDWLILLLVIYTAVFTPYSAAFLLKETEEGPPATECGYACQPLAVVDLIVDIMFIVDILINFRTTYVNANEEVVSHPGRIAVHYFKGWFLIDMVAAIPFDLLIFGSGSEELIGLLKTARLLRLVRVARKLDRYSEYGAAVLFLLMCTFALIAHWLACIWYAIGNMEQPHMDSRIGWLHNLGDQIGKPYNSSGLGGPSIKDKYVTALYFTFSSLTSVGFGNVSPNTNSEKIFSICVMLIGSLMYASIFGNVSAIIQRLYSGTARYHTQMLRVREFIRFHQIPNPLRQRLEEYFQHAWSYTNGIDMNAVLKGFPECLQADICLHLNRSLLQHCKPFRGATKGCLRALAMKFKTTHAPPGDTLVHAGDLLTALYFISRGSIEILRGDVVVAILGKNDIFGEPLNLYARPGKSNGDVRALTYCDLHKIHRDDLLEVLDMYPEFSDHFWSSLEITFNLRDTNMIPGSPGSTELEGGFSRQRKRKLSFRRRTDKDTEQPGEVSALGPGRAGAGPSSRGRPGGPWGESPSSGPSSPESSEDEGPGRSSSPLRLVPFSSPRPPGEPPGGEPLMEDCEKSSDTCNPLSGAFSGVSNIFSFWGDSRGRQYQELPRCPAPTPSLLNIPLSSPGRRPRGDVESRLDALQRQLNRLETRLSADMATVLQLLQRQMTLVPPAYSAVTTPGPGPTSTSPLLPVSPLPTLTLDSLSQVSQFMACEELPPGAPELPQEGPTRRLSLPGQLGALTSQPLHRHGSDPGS
Phospholipase A2, sequence (P04054 whole entry): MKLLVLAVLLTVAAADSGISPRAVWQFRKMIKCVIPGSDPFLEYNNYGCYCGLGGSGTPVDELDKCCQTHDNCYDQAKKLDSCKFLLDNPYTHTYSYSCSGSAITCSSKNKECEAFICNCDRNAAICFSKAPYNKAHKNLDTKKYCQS

Cc1ccc(NC(=O)CN(C)C(=O)Cc2ccc(Cl)cc2Cl)cc1
IC50 [1]: 83.3 µM (inactive) | IC50 [2]: 16.5 µM (inactive) | IC50 [3]: 6.81 µM (active)

NC(=O)c1sc2nccc(Nc3ccccc3)c2c1N
AC50 [4]: 2.12 µM (active) | AC50 (HEK293): 3.96 µM (active) | AC50 [5]: 0.726 µM (active) | EC50 (cells [6]): > 350 µM (not active) | AC50 [7]: 1.37 µM (active) | EC50 (cells [8]): > 350 µM (not active) | AC50 [9]: < 0.26 µM (active)

CCCC1OC23CCCCC2C(C#N)(C(=N)O3)C1(C#N)C#N (stereo not drawn)
IC50 [10]: > 9.99 µM (inactive)

C[C@H](NC(=O)C[C@@H]1C=C[C@@H](NC(=O)Cc2ccccn2)[C@@H](CO)O1)c1ccccc1
AbsAC35 [11]: 153.45 µM

CCCCCCCC/C=C\CCCCCCCC(=O)NCCO [OLEOYLETHANOLAMIDE]
AC50 [12]: > 100 µM (inactive) | AC50 (Cytochrome P450 3A4): 31.6 µM (inconclusive) | AC50 [13]: 7.67 µM (active) | AC50 [14]: 35.5 µM (inconclusive)

CC(C)(C)C(=O)Nc1nnc(CSCc2ccccc2F)s1
IC50 (Beta-lactamase [15]): > 59.6 µM (inactive) | IC50 (Cysteine protease ATG4B): 8.86 µM (active) | IC50 (Beta-lactamase [16]): > 59.6 µM (inactive) | IC50 (Phospholipase A2): 6.65 µM (active) | IC50 (Beta-lactamase [17]): > 59.6 µM (inactive)

O=[N+]([O-])c1ccc(-c2ccc(/C=N/c3cccc4ccccc34)o2)cc1
IC50 [10]: 8.15 µM (active)

O=C1Nc2cc(C(=O)NCCCN3CCOCC3)ccc2S/C1=C/c1ccccc1F
IC50 (Beta-lactamase [15]): > 59.6 µM (inactive) | IC50 (Beta-lactamase [16]): > 59.6 µM (inactive) | EC50 [18]: 2.66 µM (active) | IC50 (Beta-lactamase [17]): > 59.6 µM (inactive)

CN1C(=O)c2cc(NC(=O)Cc3cccs3)ccc2OC[C@@H]2O[C@H](CC(=O)NCc3ccc(-c4ccccc4)cc3)CC[C@H]21
AbsAC35 [11]: 112.32 µM

CN(C)N=C(S)Nc1ccc2nc(-c3ccccn3)c(-c3ccccn3)nc2c1
EC50 [19]: > 53 µM (inactive) | IC50 [20]: 14.3 µM (active) | IC50 [21]: 9.92 µM (active)

COc1ccc(C2=Nn3c(nnc3-c3ccccc3OC)SC2)cc1OCC1CC1
AC50 (Vero): 29.1 µM (active) | IC50 [22]: > 109 µM (inactive) | IC50 [23]: 0.35 µM (active)
